Source: patent publication US5919823A, “Treatment of secondary movement disorders using large neutral amino acids” (The Research Foundation For Mental Hygiene, priority 1997, dated 1999)
Like-named read-outs stand apart in the source and are kept apart here.

Tests used:
[1] = in vivo; cited from earlier work
[2] = cited from earlier work
[3] = Plasma large neutral amino acid and phenylethylamine levels, fasting and 2 hours after protein challenge (Study Two); settings: for Plasma LNAA Ratio, Post-loading / Plasma level, Post-loading: 2 hours after protein challenge; for Plasma LNAA Ratio, Post-loading / Plasma level, Post-loading / Plasma LNAA Ratio, Fasting / Plasma level, Fasting: mean ± SD
Experimental: Blood samples were drawn from patients after an overnight fast and 2 hours after the ingestion of a protein challenge. This challenge was served in the form of a breakfast which consisted of orange juice, a cheese omelette, ham, a waffle and coffee.
The blood samples were assayed for the levels of plasma large neutral amino acids; phenylalanine, tyrosine, tryptophan, alanine, isoleucine, leucine, valine, histidine, and threonine, and for the levels of phenylethylamine. The latter was also measured because it is a major metabolite of phenylalanine and considered to be a neuromodulator.
The plasma amino acids, with the exception of tryptophan, were analyzed by phenylisothiocyanate (PITC) derivation followed by HPLC. The analysis of tryptophan was performed using HPLC with spectrofluormetric detection.
The plasma values of the amino acids were studied both as actual levels and as the ratio of phenylalanine level to the level of the other large neutral amino acids in the plasma. This ratio serves as an index of the entry of phenylalanine into the brain, which accounts for the competition of the other large neutral amino acids (LNAA) with phenylalanine (Phe) at the blood brain barrier, as discussed. previously. This ratio is calculated as follows: [formula]

[4] = Phenylalanine challenge, akathisia symptoms (Study Three, Example 4); format: in vivo, patients (psychotic males and females); settings: 100 mg/kg
Experimental: (§1) A third study (Study Three) was a large scale replication of Study Two with some improved technical methodology; most importantly, the switch from a protein challenge to a phenylalanine challenge and the weight standardization of the phenylalanine challenge (100 mg/kg). This investigation was conducted in 209 psychotic males and 103 psychotic females. […] This finding was independent of the age of the patient.
(§2) As shown below, the data from this study has also enabled the present inventor to study the effect of the phenylalanine challenge on the symptom levels of Parkinsonism, akathisia and tardive dystonia. This information is important in justifying the usefulness of large neutral amino acid treatments for these disorders.
The large percentage (81.0%) of patients whose symptoms were impacted by the phenylalanine challenge supports the value of plasma large neutral amino acid manipulation in the treatment of this disorder. […] Patients without coexisting TD were more likely to show a higher level of symptom worsening than those with coexisting TD. As said for Parkinsonism, above, though it is the case that there is a case by case aspect to treatment success which makes prediction difficult, one can set forth some predictive generalizations as below: […]

[5] = Plasma phenylalanine response to phenylalanine challenge in TD-yes and TD-no patients (Study Three); format: in vivo, psychotic males and females; settings: 100 mg/kg, TD Yes vs TD No patients
Excerpt: In this work (Study Two and Three) the plasma level tells us the actual level of phenylalanine in the blood and the phenylalanine/large neutral amino acid ratio gives us a marker relative to the other large neutral amino acids. This ratio thus provides information on brain levels of phenylalanine, or more specifically, the penetrance past the blood brain barrier of phenylalanine. This is so because it is known that phenylalanine competes with the other large neutral amino acids, such as tyrosine, tryptophan, isoleucine, leucine and valine for entry into the brain across the blood brain barrier.

[6] = after challenge administration, most of the subjects; cited from earlier work
[7] = Phenylalanine challenge, Parkinsonism symptoms (Study Three, Example 4); format: in vivo, patients (psychotic males and females); settings: 100 mg/kg
Experimental: as §1, §2
185 (59.3%) of the study patients made criterion for a case of Parkinsonism; […]. […] The large percentage (88.6%) of patients whose symptoms were impacted by the phenylalanine challenge supports the value of plasma large neutral amino acid manipulation in the treatment of this disorder. Further, as is seen in Table 3 below, this pattern of change was quite similar whether or not the patient had coexisting tardive dyskinesia. Though there is a case by case aspect to treatment success which makes prediction difficult, one can set forth some predictive generalizations as below. A further caveat is that because of the possible case of the worsening of a coexisting disorder the clinician must first treat the disorder that is causing the patient the most difficulty. Difficulty would be defined by some interaction between severity of symptom and disorder.

[8] = Phenylalanine challenge, tardive dystonia symptoms (Study Three, Example 4); format: in vivo, patients (psychotic males and females); settings: 100 mg/kg
Experimental: as §1, §2
Thus, more than a majority of patients (57.9%) did respond to the phenylalanine challenge. […] Patients without coexisting TD were much more likely to improve their tardive dystonia symptom status after a phenylalanine challenge than patients with coexisting TD, while patients with coexisting TD were much more likely to show a higher level of symptom worsening than those without coexisting TD.

[9] = of the large neutral amino acids; cited from earlier work
[10] = Multi-challenge study, videotaped TD movement counts (Study Four, Example 2); format: in vivo, male patients
Experimental: A single patient was exposed over a period of several weeks to multiple dietary challenges, at the rate of one baseline day and one challenge day per week.
The baseline days were Tuesdays and the challenge days were Wednesdays.
On both Tuesdays and Wednesdays a videotaped evaluation procedure for TD was conducted and videotaped TD movement count sessions were held. These were 2 hours post-coffee on Tuesday and 2 hours post challenge on Wednesday. Movement counts were blindly rated from the videotapes by the present inventor.
Evaluation sessions were conducted at the same time on both days with patients fasting (except for one cup of decaffeinated coffee) on the baseline days.
A carbohydrate challenge breakfast; 223 grams of carbohydrates, 1369 calories, less than 4% protein.
A 100 mg/kg challenge of Phe.
A BCAA dietary supplement as follows:
a) 2 patients had 209 mg/kg doses of BCAA powder given in orange juice
The BCAA powder given in orange juice and in the flavored formulation at 150 mg/kg and 275 mg/kg consisted of 30 parts--valine, 30 parts-isoleucineand 40 parts-leucine.

serotonin receptors = settings: animals; cited from earlier work
[11] = in vivo; cited from earlier work; remark: listed apart in the source
[12] = TD Symptom Persistence group (n = 15)
[13] = TD Symptom Remission group (n = 15)
[14] = 2 hours, ALL (n=185), listed as Phenylalanine

## CN1CCN(C2=Nc3cc(Cl)ccc3Nc3ccccc32)CC1 [clozapine]
[1]
  movement disorder side-effects: less likely to result in movement disorder side-effects
  other side effects: carries the risk of other serious life-threatening side effects

## NC(Cc1c[nH]c2ccccc12)C(=O)O [D-L tryptophan]
[2]; 4 patients
  effect on TD: no change in TD

## N[C@@H](Cc1ccc(O)cc1)C(=O)O [tyrosine]
[3]; [12]
  Plasma LNAA Ratio, Percent Change (Postloading/Fasting): 0%
  Plasma level, Percent Change (Postloading/Fasting): +23.1%
  Plasma LNAA Ratio, Post-loading: 0.103 ± 0.012
  Plasma level, Post-loading: 85.3 ± 22.6 nmol/mL
  Plasma LNAA Ratio, Fasting: 0.103 ± 0.012
  Plasma level, Fasting: 69.3 ± 14.8 nmol/mL
[3]; [13]
  Plasma LNAA Ratio, Percent Change (Postloading/Fasting): 0%
  Plasma level, Percent Change (Postloading/Fasting): +30.1%
  Plasma LNAA Ratio, Post-loading: 0.090 ± 0.020
  Plasma level, Post-loading: 84.3 ± 23.5 nmol/mL
  Plasma LNAA Ratio, Fasting: 0.090 ± 0.022
  Plasma level, Fasting: 64.8 ± 17.1 nmol/mL
[3]; symptom remission group vs persistence group, 30 males
  percentage change in plasma level: larger percentage changes

## N[C@@H](Cc1c[nH]c2ccc(O)cc12)C(=O)O [5-hydroxytryptophan]
[2]; seven patients, concomitant administration with carbidopa
  effect on TD: no change in TD

## N[C@@H](Cc1ccccc1)C(=O)O [phenylalanine]
[4]; 2 hours
  patients whose akathisia symptoms were impacted: 81.0%
[4]; 2 hours, ALL (n=105)
  Akathisia BETTER, %: 33.4%
  Akathisia BETTER, No.: 35 patients
  Akathisia NO CHANGE, %: 19.0%
  Akathisia NO CHANGE, No.: 20 patients
  Akathisia WORSE, %: 47.6%
  Akathisia WORSE, No.: 50 patients
[4]; TD-NO (n=42)
  Akathisia BETTER, %: 23.8%
  Akathisia BETTER, No.: 10
  Akathisia NO CHANGE, %: 16.7%
  Akathisia NO CHANGE, No.: 7
  Akathisia WORSE, %: 59.5%
  Akathisia WORSE, No.: 25
[4]; TD-YES (n=63)
  Akathisia BETTER, %: 39.7%
  Akathisia BETTER, No.: 25
  Akathisia NO CHANGE, %: 21.6%
  Akathisia NO CHANGE, No.: 13
  Akathisia WORSE, %: 39.7%
  Akathisia WORSE, No.: 25
[5]
  plasma phenylalanine and phenylalanine/LNAA ratio after phenylalanine challenge: statistically significant higher levels
[6]
  time of peak phenylalanine plasma level: 2 h
[7]; 2 hours
  patients whose Parkinsonism symptoms were impacted: 88.6%
[7]; 2 hours, ALL (n=185)
  Parkinsonism BETTER, %: 42.7%
  Parkinsonism BETTER, No.: 79 patients
  Parkinsonism NO CHANGE, %: 11.3%
  Parkinsonism NO CHANGE, No.: 21 patients
  Parkinsonism WORSE, %: 45.9%
  Parkinsonism WORSE, No.: 85 patients
[7]; 2 hours, ALL (n=185), listed as Phe
  Parkinsonism WORSE, %: 46%
[7]; [14]
  Parkinsonism NO CHANGE, %: 11.4%
  Parkinsonism WORSE, %: 45.9%
[7]; TD-NO (n=84)
  Parkinsonism BETTER, %: 40.5%
  Parkinsonism BETTER, No.: 34
  Parkinsonism NO CHANGE, %: 13.1%
  Parkinsonism NO CHANGE, No.: 11
  Parkinsonism WORSE, %: 46.4%
  Parkinsonism WORSE, No.: 39
[7]; TD-YES (n=101)
  Parkinsonism BETTER, %: 44.5%
  Parkinsonism BETTER, No.: 45
  Parkinsonism NO CHANGE, %: 9.9%
  Parkinsonism NO CHANGE, No.: 10
  Parkinsonism WORSE, %: 45.6%
  Parkinsonism WORSE, No.: 46
[8]; 2 hours
  patients whose tardive dystonia responded to the phenylalanine challenge: 57.9%
[8]; 2 hours, ALL (n=19)
  Tardive dystonia BETTER, %: 21.0%
  Tardive dystonia BETTER, No.: 4 patients
  Tardive dystonia NO CHANGE, %: 42.1%
  Tardive dystonia NO CHANGE, No.: 8 patients
  Tardive dystonia WORSE, %: 36.9%
  Tardive dystonia WORSE, No.: 7 patients
[8]; TD-NO (n=5)
  Tardive dystonia BETTER, %: 60.0%
  Tardive dystonia BETTER, No.: 3
  Tardive dystonia NO CHANGE, %: 40.0%
  Tardive dystonia NO CHANGE, No.: 2
  Tardive dystonia WORSE, %: 0.0%
  Tardive dystonia WORSE, No.: none
[8]; TD-NO (n=5), listed as Phenylalanine
  Tardive dystonia WORSE, No.: 0
[8]; TD-YES (n=14)
  Tardive dystonia BETTER, %: 7.1%
  Tardive dystonia BETTER, No.: 1
  Tardive dystonia NO CHANGE, %: 42.9%
  Tardive dystonia NO CHANGE, No.: 6
  Tardive dystonia WORSE, %: 50.0%
  Tardive dystonia WORSE, No.: 7
[9]
  affinity for the blood brain barrier: highest affinity for the blood brain barrier
[10]; Patient B, coexisting TD and tardive dystonia
  TD symptom change: did not show a symptom increase
[10]; after Phe challenge 100 mg/kg
  patients with an increase in TD symptom severity: three out of four
[10]; after Phe challenge 100 mg/kg, three patients
  increase in TD symptom severity, range over patients: 69% to 440
[10]; after Phe challenge 100 mg/kg, listed as Phe
  patients with an increase in TD symptom severity: Three
[3]; in vivo
  percentage change in plasma level: larger percentage changes
  post challenge phenylalanine to LNAA ratio: significantly higher

## NCCc1ccccc1 [phenylethylamine, reference compound]
Serotonin receptors
  motor effect: produces a motor syndrome which can be blocked by serotonin antagonists
[3]; [12]
  Plasma level, Percent Change (Postloading/Fasting): +14.7%
  Plasma level, Post-loading: 95.1 ± 19.2 pg/mL
  Plasma level, Fasting: 82.9 ± 19.8 pg/mL
[3]; [13]
  Plasma level, Percent Change (Postloading/Fasting): +5.9%
  Plasma level, Post-loading: 92.7 ± 21.8 pg/mL
  Plasma level, Fasting: 87.5 ± 30.5 pg/mL
[3]; persistence group, but not in remission group
  phenylethylamine level change: significantly increased

## N[C@@H](Cc1c[nH]c2ccccc12)C(=O)O [tryptophan]
[3]; in vivo
  decrease in tryptophan/LNAA ratio, greater in remittance group: 35%
  magnitude of decrease in tryptophan/LNAA ratio: significantly greater
[2]; two case reports
  effect on TD: reduction of TD symptoms

## CC(C)NCC(O)COc1cccc2ccccc12 (centres unmarked) [propranolol]
[11]
  treatment of neuroleptic-induced akathisia: successful in some patients

## CC(C)[C@H](N)C(=O)O [valine]
[3]; in vivo
  percentage change in plasma level: larger percentage changes
  valine/LNAA ratio change: increased significantly
